As a reminder, the IC50 is the point on the concentration scale where inhibition reaches its midpoint. Low readings indicate inhibition by little substance, high ones a need for much substance.

Some results are limits rather than exact numbers.

This assay has as its target T1, IRAK4 (Homo sapiens, UniProt Q9NWZ3).
T1 sequence (Q9NWZ3 1-460): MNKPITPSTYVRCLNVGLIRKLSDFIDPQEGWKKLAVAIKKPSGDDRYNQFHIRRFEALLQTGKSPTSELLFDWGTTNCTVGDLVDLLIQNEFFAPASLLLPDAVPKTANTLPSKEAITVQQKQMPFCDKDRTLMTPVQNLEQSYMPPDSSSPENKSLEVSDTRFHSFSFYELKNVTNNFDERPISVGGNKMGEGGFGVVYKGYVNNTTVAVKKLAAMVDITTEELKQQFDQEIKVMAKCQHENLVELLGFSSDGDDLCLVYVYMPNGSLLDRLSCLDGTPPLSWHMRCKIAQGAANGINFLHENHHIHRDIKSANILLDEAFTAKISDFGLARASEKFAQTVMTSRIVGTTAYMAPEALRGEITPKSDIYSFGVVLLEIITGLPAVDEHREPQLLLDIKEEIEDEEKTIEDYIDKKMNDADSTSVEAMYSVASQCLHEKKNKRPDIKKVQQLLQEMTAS
Nature of the assay: IRAK-4 activity inhibition assay (Caliper). The class given is biochemical. The settings on record: 37 μM ATP, 3.5 nM IRAK4.

The compound `CN(C)[C@H]1CC[C@H](Nc2ncnc3sc4c(c23)C(CC(=O)NCCO)CC4)CC1` (some centres unmarked) [Compound I-26, 2-(12-[[4-(dimethylamino)cyclohexyl]amino]-7-thia-9,11-diazatricyclo[6.4.0.0̂[2,6]]dodeca-1(8),2(6),9,11-tetraen-3-yl)-N-(2-hydroxyethyl)acetamide] had an IC50 of 5 to 20 µM.
In turn, `CN(C)[C@H]1CC[C@H](Oc2ncnc3sc4c(c23)[C@@H](C[C@H](O)c2cc[nH]n2)CC4)CC1` [Compound I-96, (S)-2-((R)-4-(((1r,4R)-4-(dimethylamino)cyclohexyl)oxy)-6,7-dihydro-5H-cyclopenta[4,5]thieno[2,3-d]pyrimidin-5-yl)-1-(1H-pyrazol-3-yl)ethanol] yielded a half-inhibitory concentration (IC50) of under 5 µM.
`CN(C)[C@H]1CC[C@H](Oc2ncnc3sc4c(c23)[C@@H](C[C@@H](O)c2cc[nH]n2)CC4)CC1` [Compound I-98, (R)-2-((R)-4-(((1r,4R)-4-(dimethylamino)cyclohexyl)oxy)-6,7-dihydro-5H-cyclopenta[4,5]thieno[2,3-d]pyrimidin-5-yl)-1-(1H-pyrazol-3-yl)ethanol] returned an IC50 of under 5 µM.
As for `CN(C)[C@H]1CC[C@H](Oc2ncnc3sc4c(c23)[C@H](CO)CC4)CC1` [Compound I-20, ((S)-4-(((1r,4S)-4-(dimethylamino)cyclohexyl)oxy)-6,7-dihydro-5H-cyclopenta[4,5]thieno[2,3-d]pyrimidin-5-yl)methanol], the figure is under 5 µM.
`CC[C@H](O)C[C@H]1CCc2sc3ncnc(O[C@H]4CC[C@H](N5CCOCC5)CC4)c3c21` [Compound I-64, (S)-1-((R)-4-(((1r,4R)-4-morpholinocyclohexyl)oxy)-6,7-dihydro-5H-cyclopenta[4,5]thieno[2,3-d]pyrimidin-5-yl)butan-2-ol] displayed an IC50 of under 5 µM.
As to `NC(=O)[C@H](O)C[C@H]1CCc2sc3ncnc(O[C@H]4CC[C@H](N)CC4)c3c21` [Compound I-138, (R)-3-((R)-4-(((1 r,4R)-4-aminocyclohexyl)oxy)-6,7-dihydro-5H-cyclopenta[4,5]thieno[2,3-d]pyrimidin-5-yl)-2-hydroxypropanamide], the IC50 is under 5 µM.
As for `CN(C)[C@H]1CC[C@H](Nc2ncnc3sc4c(c23)C(CC(=O)N2CCCC2)CC4)CC1` (some centres unmarked) [Compound I-14, 2-(4-(((1r,4r)-4-(dimethylamino)cyclohexyl)amino)-6,7-dihydro-5H-cyclopenta[4,5]thieno[2,3-d]pyrimidin-5-yl)-1-(pyrrolidin-1-yl)ethanone], the IC50 was over 50 µM.
As to `COCCN[C@H]1CC[C@H](Oc2ncnc3sc4c(c23)[C@@H](CC(N)=O)CC4)CC1` [Compound I-133, 2-[(3R)-12-([4-[(2-methoxyethyl)amino]cyclohexyl]oxy)-7-thia-9,11-diazatricyclo[6.4.0.0[2,6]]dodeca-1(12),2(6),8,10-tetraen-3-yl]acetamide], the IC50 was under 5 µM.
The same measure for `CN(C)[C@H]1CC[C@H](Nc2ncnc3sc4c(c23)C(CC(=O)O)CC4)CC1` (some centres unmarked) [Compound I-18]: 5 to 20 µM; for `C[C@H](O)C[C@H]1CCc2sc3ncnc(N[C@H]4CC[C@H](N(C)C)CC4)c3c21` [Compound I-55]: under 5 µM; for `CC[C@H](C[C@H]1CCc2sc3ncnc(N[C@H]4CC[C@H](N(C)C)CC4)c3c21)OC` [Compound I-147, (1r,4R)-N1-((R)-5-((R)-2-methoxybutyl)-6,7-dihydro-5H-cyclopenta[4,5]thieno[2,3-d]pyrimidin-4-yl)-N4,N4-dimethylcyclohexane-1,4-diamine]: under 5 µM.
For the compound `CN(C)[C@H]1CC[C@H](Oc2ncnc3sc4c(c23)CN(S(=O)(=O)CCO)CC4)CC1` [Compound I-209, 2-(3-[[4-(dimethylamino)cyclohexyl]oxy]-8-thia-4,6, 12-triazatricyclo[7.4.0.0[2,7]]trideca-1(9),2,4,6-tetraene-12-sulfonyl)ethan-1-ol], the IC50 was under 5 µM.
On to `CN[C@]1(C)CC[C@@H](Oc2ncnc3sc4c(c23)[C@@H](CC(N)=O)CC4)CC1` [Compound I-156, 2-[(3R)-12-[[4-methyl-4-(methylamino)cyclohexyl]oxy]-7-thia-9,11-diazatricyclo[6.4.0.0[2,6]]dodeca-1(8),2(6),9,11-tetraen-3-yl]acetamide], for which the IC50 was under 5 µM.
`CC[C@@H](O)C[C@H]1CCc2sc3ncnc(O[C@H]4CC[C@](CC)(N(C)C)CC4)c3c21` [Compound I-101, (2R)-1-[(3R)-12-[[4-(dimethylamino)-4-ethylcyclohexyl]oxy]-7-thia-9,11-diazatricyclo[6.4.0.0[2,6]]dodeca-1(8),2(6),9,11-tetraen-3-yl]butan-2-ol] showed an IC50 of under 5 µM.
As for `C[C@@H](O)C[C@H]1CCc2sc3ncnc(N[C@H]4CC[C@H](N(C)C)CC4)c3c21` [Compound I-53], the concentration for half-maximal inhibition (IC50) is under 5 µM.
The compound `CN(C)[C@H]1CC[C@H](Oc2ncnc3sc4c(c23)CC(CC(N)=O)OC4)CC1` (some centres unmarked) [Compound I-221, 2-(3-[[4-(dimethylamino)cyclohexyl]oxy]-11-oxa-8-thia-4,6-diazatricyclo[7.4.0.0[2,7]]trideca-1(9),2(7),3,5-tetraen-12-yl)acetamide] had an IC50 of under 5 µM.
`CC(=O)N1CCc2sc3ncnc(O[C@H]4CC[C@H](N(C)C)CC4)c3c2C1` [Compound I-167] returned an IC50 of under 5 µM.
`CN(C1COC1)[C@H]1CC[C@H](Oc2ncnc3sc4c(c23)[C@@H](CC(N)=O)CC4)CC1` [Compound I-129, 2-((R)-4-(((1r,4R)-4-(methyl(oxetan-3-yl)amino)cyclohexyl)oxy)-6,7-dihydro-5H-cyclopenta[4,5]thieno[2,3-d]pyrimidin-5-yl)acetamide] registered an IC50 of under 5 µM.
In turn, `CCCOC(=O)N1CCc2sc3ncnc(O[C@H]4CC[C@H](N(C)C)CC4)c3c2C1` [Compound I-184, propyl 3-[[4-(dimethylamino)cyclohexyl]oxy]-8-thia-4,6, 12-triazatricyclo[7.4.0.0[2,7]]trideca-1(9),2(7),3,5-tetraene-12-carboxylate] came in with an IC50 of under 5 µM.
For `NC(=O)C[C@H]1CCc2sc3ncnc(O[C@H]4CC[C@H](N5CCNC(=O)C5)CC4)c3c21` [Compound I-158, 2-((R)-4-(((1r,4R)-4-(3-oxopiperazin-1-yl)cyclohexyl)oxy)-6,7-dihydro-5H-cyclopenta[4,5]thieno[2,3-d]pyrimidin-5-yl)acetamide], the IC50 lay in the range of 20 to 50 µM.
In turn, `COCCN(CCOC)[C@H]1CC[C@H](Oc2ncnc3sc4c(c23)[C@@H](CC(N)=O)CC4)CC1` [Compound I-134, 2-[(3R)-12-([4-[bis(2-methoxyethyl)amino]cyclohexyl]oxy)-7-thia-9,11-diazatricyclo[6.4.0.0[2,6]]dodeca-1(12),2(6),8,10-tetraen-3-yl]acetamide] came in with an IC50 of under 5 µM.
The same measure for `CN(CCF)[C@H]1CC[C@H](Oc2ncnc3sc4c(c23)[C@@H](CC(N)=O)CC4)CC1` [Compound I-125, 2-((R)-4-(((1r,4R)-4-((2-fluoroethyl)(methyl)amino)cyclohexyl)oxy)-6,7-dihydro-5H-cyclopenta[4,5]thieno[2,3-d]pyrimidin-5-yl)acetamide]: under 5 µM.
The same measure for `CN[C@H]1CC[C@H](Oc2ncnc3sc4c(c23)[C@@H](CC(=O)NC[C@@H](C)O)CC4)CC1` (stereo in doubt) [Compound I-151, N-[(2R)-2-hydroxypropyl]-2-[(3R)-12-[[4-(methylamino)cyclohexyl]oxy]-7-thia-9,11-diazatricyclo[6.4.0.0[2,6]]dodeca-1(12),2(6),8,10-tetraen-3-yl]acetamide]: 5 to 20 µM; for `CN(CCO)C(=O)C1CCc2sc3ncnc(N[C@H]4CC[C@H](N(C)C)CC4)c3c21` (some centres unmarked) [Compound I-29, 12-[[4-(dimethylamino)cyclohexyl]amino]-N-(2-hydroxyethyl)-N-methyl-7-thia-9,11-diazatricyclo[6.4.0.0̂[2,6]]dodeca-1(12),2(6),8,10-tetraene-3-carboxamide]: over 50 µM; for `CN(C)[C@H]1CC[C@H](Nc2ncnc3sc4c(c23)C(CCO)CC4)CC1` (some centres unmarked) [Compound I-12, 2-(4-(((1r,4r)-4-(dimethylamino)cyclohexyl)amino)-6,7-dihydro-5H-cyclopenta[4,5]thieno[2,3-d]pyrimidin-5-yl)ethanol]: under 5 µM.
For the compound `CN(C)[C@H]1CC[C@H](Nc2ncnc3sc4c(c23)C(CC#N)CC4)CC1` (some centres unmarked) [Compound I-9], the concentration for half-maximal inhibition (IC50) was under 5 µM.
As for `CC[C@]1(N(C)C)CC[C@H](Oc2ncnc3sc4c(c23)[C@@H](CCO)CC4)CC1` [Compound I-91, 2-((R)-4-(((1r,4R)-4-(dimethylamino)-4-ethylcyclohexyl)oxy)-6,7-dihydro-5H-cyclopenta[4,5]thieno[2,3-d]pyrimidin-5-yl)ethanol], the figure is under 5 µM; as for `C/C=C/COC[C@H]1CCc2sc3ncnc(O[C@H]4CC[C@H](N(C)C)CC4)c3c21` [Compound I-59, 4-[[(3S)-3-[[(2E)-but-2-en-1-yloxy]methyl]-7-thia-9,11-diazatricyclo[6.4.0.0[2,6]]dodeca-1(8),2(6),9,11-tetraen-12-yl]oxy]-N,N-dimethylcyclohexan-1-amine], under 5 µM.
For the compound `CCN[C@H]1CC[C@H](Oc2ncnc3sc4c(c23)[C@@H](C[C@@H](O)C(N)=O)CC4)CC1` [Compound I-139, (2R)-3-[(3R)-12-[[4-(ethylamino)cyclohexyl]oxy]-7-thia-9,11-diazatricyclo[6.4.0.0[2,6]]dodeca-1(8),2(6),9,11-tetraen-3-yl]-2-hydroxypropanamide], the IC50 was under 5 µM.

For the origin of these results see patent publication US20160193216A1 (Nimbus Iris, Inc., priority 2012, published 2016).
